# Measurements from US20110230481A2, “DERIVATIVES OF TETRABROMOBENZIMIDAZOLE, A PROCESS FOR THE PREPARATION THEREOF, A PHARMACEUTICAL COMPOSITION COMPRISING THE SAME, A METHOD OF USING THE SAME, A METHOD FOR MODULATING OR REGULATING SERINE/THREONINE KINASES, AND SERINE/THREONINE KINASES MODULATING AGENT” (SELVITA S.A., priority 2009, published 2011).
# Legend:
# Experiment in all cases: KINOMEscan Max
# Assay type in all cases: binding
# [1] = target: ABL1(Q252H)-nonphosphorylated (Homo sapiens, UniProt P00519, Q252H)
# Procedure, shortened: (§1)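 Competitive displacement format with DNA-tagged human kinase and an immobilized active-site probe; detection by qPCR amplification of the kinase's DNA tag.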
# ABL1-nonphosphorylated = ABL1-nonphosphorylated (Homo sapiens, UniProt P00519)
# Procedure, shortened: as §1
# ABL1-phssophorylated = ABL1-phssophorylated (Homo sapiens, UniProt P00519)
# Procedure, shortened: as §1
# ACVR1 = ACVR1 (Homo sapiens, UniProt Q04771)
# Procedure, shortened: as §1
# ASK2 = target: T1, ASK2 (Homo sapiens, UniProt O95382)
# T1 construct: DNA tag (qPCR read-out)
# Procedure, shortened: as §1
# AXL = target: T2, AXL (Homo sapiens, UniProt P30530)
# T2 construct: DNA tag (qPCR read-out)
# Procedure, shortened: as §1
# CDC2L5 = target: T3, CDC2L5 (Homo sapiens, UniProt Q14004); settings: 1 μM
# T3 construct: DNA tag (qPCR read-out); purchased Ambit Kinomescan
# Procedure, shortened: as §1
# CDK9 = target: T4, CDK9 (Homo sapiens, UniProt P50750)
# T4 construct: DNA tag (qPCR read-out)
# Procedure, shortened: as §1
# CSNK2A2 = target: T5, CSNK2A2 (Homo sapiens, UniProt P19784)
# T5 construct: DNA tag (qPCR read-out)
# Procedure, shortened: as §1
# DLK = target: T6, DLK (Homo sapiens, UniProt Q12852); settings: 1 μM
# T6 construct: DNA tag (qPCR read-out)
# Procedure, shortened: as §1
# DMPK = target: T7, DMPK (Homo sapiens, UniProt Q09013)
# T7 construct: purchased Ambit (KINOMEscan Max panel service)
# Procedure, shortened: as §1
# EGFR(E746-A750del) = target: T8, EGFR(E746-A750del) (Homo sapiens, UniProt P00533, DEL746-750); settings: 1 μM
# T8 construct: purchased Ambit (KINOMEscan Max service)
# Procedure, shortened: as §1
# EGFR(G719S) = target: T9, EGFR(G719S) (Homo sapiens, UniProt P00533, G719S); settings: 1 μM
# T9 construct: purchased Ambit (KINOMEscan Max panel service)
# Procedure, shortened: as §1
# [2] = target: T10, EGFR(L747-E749del. A750P) (Homo sapiens, UniProt P00533, A750P/DEL747-749); settings: 1 μM
# T10 construct: purchased Ambit (KINOMEscan Max panel service)
# Procedure, shortened: as §1
# EGFR(L858R.T790M) = target: T11, EGFR(L858R.T790M) (Homo sapiens, UniProt P00533, L858R/T790M); settings: 1 μM
# T11 construct: purchased Ambit (KINOMEscan Max panel service)
# Procedure, shortened: as §1
# EPHA7 = target: T12, EPHA7 (Homo sapiens, UniProt Q15375)
# T12 construct: purchased Ambit (KINOMEscan Max panel service)
# Procedure, shortened: as §1
# ERBB2 = target: T13, ERBB2 (Homo sapiens, UniProt P04626)
# T13 construct: purchased Ambit Kinomescan (contract panel, KINOMEscan Max)
# Procedure, shortened: as §1
# FGFR3 = target: T14, FGFR3 (Homo sapiens, UniProt P22607)
# T14 construct: purchased Ambit (KINOMEscan Max service)
# Procedure, shortened: as §1
# FLT3(R834Q) = target: T15, FLT3(R834Q) (Homo sapiens, UniProt P36888, R834Q)
# T15 construct: purchased Ambit Kinomescan (contract panel, KINOMEscan Max)
# Procedure, shortened: as §1
# GAK = target: T16, GAK (Homo sapiens, UniProt O14976)
# T16 construct: purchased Ambit (KINOMEscan Max service)
# Procedure, shortened: as §1
# LRRK2 = LRRK2 (Homo sapiens, UniProt Q5S007)
# Procedure, shortened: as §1
# MEK6 = MEK6 (Homo sapiens, UniProt P52564)
# Procedure, shortened: as §1
# MLK1 = MLK1 (Homo sapiens, UniProt P80192)
# Procedure, shortened: as §1
# NEK6 = NEK6 (Homo sapiens, UniProt Q9HC98)
# Procedure, shortened: as §1
# PHKG2 = PHKG2 (Homo sapiens, UniProt P15735)
# Procedure, shortened: as §1
# PIK3CA(Q546K) = target: T17, PIK3CA(Q546K) (Homo sapiens, UniProt P42336, Q546K)
# T17 construct: DNA tag (qPCR read-out)
# Procedure, shortened: as §1
# PIK3CG = target: T18, PIK3CG (Homo sapiens, UniProt P48736)
# T18 construct: purchased Ambit Kinomescan (contract screening)
# Procedure, shortened: as §1
# PIP5K1A = PIP5K1A (Homo sapiens, UniProt Q99755)
# Procedure, shortened: as §1
# RIOK3 = target: T19, RIOK3 (Homo sapiens, UniProt O14730)
# T19 construct: DNA tag (qPCR read-out)
# Procedure, shortened: as §1
# RIPK1 = target: T20, RIPK1 (Homo sapiens, UniProt Q13546)
# T20 construct: DNA tag (qPCR read-out)
# Procedure, shortened: as §1
# STK39 = target: T21, STK39 (Homo sapiens, UniProt Q9UEW8)
# T21 construct: DNA tag (qPCR read-out)
# Procedure, shortened: as §1
# TSSK1B = target: T22, TSSK1B (Homo sapiens, UniProt Q9BXA7)
# T22 construct: purchased Ambit Kinomescan (contract screening service)
# Procedure, shortened: as §1
# [3] = target: T23, TYK2(JH2domain-pseudokinase) (Homo sapiens, UniProt P29597); settings: 1 μM
# T23 construct: TYK2(JH2domain-pseudokinase); purchased Ambit Kinomescan (contract screening service)
# Procedure, shortened: as §1
# T9 sequence (P00533 25-1210 G719S): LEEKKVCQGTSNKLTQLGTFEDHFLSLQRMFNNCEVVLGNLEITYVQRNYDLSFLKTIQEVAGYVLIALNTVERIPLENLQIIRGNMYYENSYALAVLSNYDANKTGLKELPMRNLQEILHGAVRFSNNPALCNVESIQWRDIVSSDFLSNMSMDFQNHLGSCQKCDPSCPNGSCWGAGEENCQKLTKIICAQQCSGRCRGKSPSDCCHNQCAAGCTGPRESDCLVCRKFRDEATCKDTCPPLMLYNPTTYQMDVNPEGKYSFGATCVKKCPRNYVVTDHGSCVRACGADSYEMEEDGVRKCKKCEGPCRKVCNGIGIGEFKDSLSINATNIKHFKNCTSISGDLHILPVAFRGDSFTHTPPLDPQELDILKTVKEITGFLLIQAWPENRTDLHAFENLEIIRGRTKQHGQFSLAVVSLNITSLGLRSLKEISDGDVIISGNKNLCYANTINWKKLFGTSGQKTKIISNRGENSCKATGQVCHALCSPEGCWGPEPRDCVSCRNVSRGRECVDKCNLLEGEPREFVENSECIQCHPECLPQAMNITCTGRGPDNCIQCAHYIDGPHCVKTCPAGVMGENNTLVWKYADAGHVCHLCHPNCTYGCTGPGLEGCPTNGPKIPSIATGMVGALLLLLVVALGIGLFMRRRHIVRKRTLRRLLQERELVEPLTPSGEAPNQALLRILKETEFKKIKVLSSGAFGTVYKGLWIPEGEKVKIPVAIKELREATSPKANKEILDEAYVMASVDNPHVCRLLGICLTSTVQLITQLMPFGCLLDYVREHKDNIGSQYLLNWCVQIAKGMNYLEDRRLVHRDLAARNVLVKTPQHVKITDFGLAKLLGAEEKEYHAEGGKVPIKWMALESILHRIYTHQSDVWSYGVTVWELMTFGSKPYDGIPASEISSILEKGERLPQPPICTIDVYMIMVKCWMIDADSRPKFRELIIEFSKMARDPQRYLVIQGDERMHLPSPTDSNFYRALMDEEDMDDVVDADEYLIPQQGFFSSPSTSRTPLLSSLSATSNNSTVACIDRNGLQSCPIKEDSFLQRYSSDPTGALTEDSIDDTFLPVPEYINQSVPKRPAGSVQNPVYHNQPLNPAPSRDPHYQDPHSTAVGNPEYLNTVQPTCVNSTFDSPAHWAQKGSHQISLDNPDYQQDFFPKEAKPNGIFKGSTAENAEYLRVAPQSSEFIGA
# T2 sequence (P30530 26-894): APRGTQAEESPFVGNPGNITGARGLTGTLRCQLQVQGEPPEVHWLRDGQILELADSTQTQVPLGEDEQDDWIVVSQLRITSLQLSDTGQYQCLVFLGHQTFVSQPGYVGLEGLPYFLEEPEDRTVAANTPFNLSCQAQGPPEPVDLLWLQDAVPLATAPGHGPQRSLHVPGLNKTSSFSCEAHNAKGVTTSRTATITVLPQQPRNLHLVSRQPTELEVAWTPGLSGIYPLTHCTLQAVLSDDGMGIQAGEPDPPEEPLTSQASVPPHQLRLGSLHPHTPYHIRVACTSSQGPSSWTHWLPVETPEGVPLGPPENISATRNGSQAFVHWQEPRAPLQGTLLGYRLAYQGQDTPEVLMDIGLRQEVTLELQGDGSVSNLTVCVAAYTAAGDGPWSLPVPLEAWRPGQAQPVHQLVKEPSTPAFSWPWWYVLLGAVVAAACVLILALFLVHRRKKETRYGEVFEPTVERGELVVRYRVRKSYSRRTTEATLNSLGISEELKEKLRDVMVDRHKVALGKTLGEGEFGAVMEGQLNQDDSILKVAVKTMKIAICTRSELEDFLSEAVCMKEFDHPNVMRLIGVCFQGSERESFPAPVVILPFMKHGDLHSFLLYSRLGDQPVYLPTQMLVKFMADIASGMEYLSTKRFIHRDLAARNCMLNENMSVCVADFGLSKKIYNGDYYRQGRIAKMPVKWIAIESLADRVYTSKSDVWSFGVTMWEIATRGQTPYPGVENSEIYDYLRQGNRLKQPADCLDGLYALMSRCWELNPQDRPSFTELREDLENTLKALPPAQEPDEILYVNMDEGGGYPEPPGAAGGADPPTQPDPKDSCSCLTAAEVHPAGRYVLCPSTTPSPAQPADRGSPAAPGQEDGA
# Sequence of PIP5K1A (Q99755 whole entry): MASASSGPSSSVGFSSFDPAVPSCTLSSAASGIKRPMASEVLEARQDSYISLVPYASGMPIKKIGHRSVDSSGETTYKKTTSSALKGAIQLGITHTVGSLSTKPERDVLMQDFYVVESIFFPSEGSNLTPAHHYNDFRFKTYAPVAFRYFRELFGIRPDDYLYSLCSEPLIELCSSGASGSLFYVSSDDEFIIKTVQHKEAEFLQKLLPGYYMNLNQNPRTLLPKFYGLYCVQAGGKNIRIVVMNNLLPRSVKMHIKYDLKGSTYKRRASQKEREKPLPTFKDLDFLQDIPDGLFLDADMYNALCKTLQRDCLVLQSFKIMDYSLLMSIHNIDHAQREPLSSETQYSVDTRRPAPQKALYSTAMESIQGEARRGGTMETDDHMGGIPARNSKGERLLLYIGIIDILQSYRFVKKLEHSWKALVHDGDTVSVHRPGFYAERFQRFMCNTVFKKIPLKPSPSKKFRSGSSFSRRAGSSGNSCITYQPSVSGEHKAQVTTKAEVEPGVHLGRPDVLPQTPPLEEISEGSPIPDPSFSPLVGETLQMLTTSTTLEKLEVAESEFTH
# T11 sequence (P00533 25-1210 T790M/L858R): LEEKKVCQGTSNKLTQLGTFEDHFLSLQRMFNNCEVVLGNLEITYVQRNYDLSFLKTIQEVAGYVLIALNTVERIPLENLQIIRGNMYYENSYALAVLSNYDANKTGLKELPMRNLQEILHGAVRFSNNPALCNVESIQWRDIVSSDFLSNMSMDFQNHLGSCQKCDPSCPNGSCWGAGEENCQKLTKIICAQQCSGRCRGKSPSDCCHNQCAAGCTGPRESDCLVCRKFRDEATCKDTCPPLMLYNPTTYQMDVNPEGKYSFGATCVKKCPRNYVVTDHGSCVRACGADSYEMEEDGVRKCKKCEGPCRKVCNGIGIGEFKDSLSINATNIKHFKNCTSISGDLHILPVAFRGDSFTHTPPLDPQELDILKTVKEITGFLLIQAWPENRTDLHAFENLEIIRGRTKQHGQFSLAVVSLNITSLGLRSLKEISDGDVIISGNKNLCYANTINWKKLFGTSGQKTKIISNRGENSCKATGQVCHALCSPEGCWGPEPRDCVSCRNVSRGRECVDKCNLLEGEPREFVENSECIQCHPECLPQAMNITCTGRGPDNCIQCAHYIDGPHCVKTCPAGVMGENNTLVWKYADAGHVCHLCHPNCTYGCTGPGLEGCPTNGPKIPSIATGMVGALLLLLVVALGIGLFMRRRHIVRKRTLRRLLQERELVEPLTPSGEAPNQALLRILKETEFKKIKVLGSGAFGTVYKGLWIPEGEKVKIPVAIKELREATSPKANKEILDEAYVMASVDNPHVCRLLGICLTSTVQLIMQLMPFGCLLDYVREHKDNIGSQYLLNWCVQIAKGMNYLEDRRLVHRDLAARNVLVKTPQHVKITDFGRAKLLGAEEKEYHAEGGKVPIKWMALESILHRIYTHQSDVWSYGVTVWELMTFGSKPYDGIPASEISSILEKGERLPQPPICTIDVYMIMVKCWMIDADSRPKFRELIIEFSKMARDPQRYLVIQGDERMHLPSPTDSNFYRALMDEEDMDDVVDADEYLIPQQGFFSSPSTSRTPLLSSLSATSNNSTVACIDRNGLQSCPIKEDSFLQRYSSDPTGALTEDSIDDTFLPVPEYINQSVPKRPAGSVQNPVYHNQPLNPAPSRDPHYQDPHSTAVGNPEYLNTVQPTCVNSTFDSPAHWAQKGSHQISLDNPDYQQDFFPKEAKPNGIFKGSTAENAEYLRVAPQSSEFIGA
# T22 sequence (Q9BXA7 whole entry): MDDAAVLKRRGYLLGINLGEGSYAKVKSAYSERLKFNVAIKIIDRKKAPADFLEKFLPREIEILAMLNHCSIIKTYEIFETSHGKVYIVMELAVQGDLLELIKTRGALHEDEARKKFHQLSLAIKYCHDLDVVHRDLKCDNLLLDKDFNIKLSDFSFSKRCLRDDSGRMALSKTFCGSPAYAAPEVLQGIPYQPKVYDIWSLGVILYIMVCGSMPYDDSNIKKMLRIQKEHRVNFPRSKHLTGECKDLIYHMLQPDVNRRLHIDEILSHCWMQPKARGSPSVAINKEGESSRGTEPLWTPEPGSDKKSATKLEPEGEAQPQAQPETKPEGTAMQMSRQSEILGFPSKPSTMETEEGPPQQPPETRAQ
# Sequence of MEK6 (P52564 whole entry): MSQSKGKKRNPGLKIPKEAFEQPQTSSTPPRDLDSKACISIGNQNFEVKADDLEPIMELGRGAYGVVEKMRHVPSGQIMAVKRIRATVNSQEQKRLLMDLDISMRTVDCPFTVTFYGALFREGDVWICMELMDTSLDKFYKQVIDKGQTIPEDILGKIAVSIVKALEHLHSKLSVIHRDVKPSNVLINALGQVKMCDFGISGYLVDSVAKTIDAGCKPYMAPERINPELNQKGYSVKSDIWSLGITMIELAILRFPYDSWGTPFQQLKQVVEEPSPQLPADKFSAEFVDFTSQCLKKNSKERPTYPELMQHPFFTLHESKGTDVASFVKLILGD
# Sequence of ACVR1 (Q04771 21-509): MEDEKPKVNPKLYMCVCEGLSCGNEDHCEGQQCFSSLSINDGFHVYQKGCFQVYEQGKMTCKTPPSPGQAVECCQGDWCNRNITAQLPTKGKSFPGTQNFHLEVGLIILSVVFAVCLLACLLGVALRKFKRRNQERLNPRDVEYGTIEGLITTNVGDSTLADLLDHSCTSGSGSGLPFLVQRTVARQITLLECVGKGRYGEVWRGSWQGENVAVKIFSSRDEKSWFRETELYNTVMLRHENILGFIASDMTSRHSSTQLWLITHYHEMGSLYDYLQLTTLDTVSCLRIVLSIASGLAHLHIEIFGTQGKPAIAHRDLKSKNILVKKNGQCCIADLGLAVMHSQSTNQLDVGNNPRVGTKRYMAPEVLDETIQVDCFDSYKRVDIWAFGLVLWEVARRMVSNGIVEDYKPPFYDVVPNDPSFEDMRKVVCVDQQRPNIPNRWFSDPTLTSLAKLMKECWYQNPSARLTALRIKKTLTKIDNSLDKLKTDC
smiles,measurement,setting,value
"NCCCNc1nc2c(Br)c(Br)c(Br)c(Br)c2[nH]1 [Compound 11, N-(3-aminopropyl)-4,5,6,7-tetrabromo-1H-benzo[d]imidazol-2-amine]",remaining binding at 1 µM,[1],95%
same,remaining binding at 1 µM,ABL1-nonphosphorylated,100%
same,remaining binding at 1 µM,ABL1-phssophorylated,94%
same,remaining binding at 1 µM,ACVR1,100%
same,remaining binding at 1 µM,ASK2,90%
same,remaining binding at 1 µM,AXL,90%
same,% binding,CDC2L5,24%
same,remaining binding at 1 µM,CDK9,90%
same,remaining binding at 1 µM,CSNK2A2,90%
same,% binding,DLK,87%
same,remaining binding at 1 µM,DMPK,100%
same,% binding,EGFR(E746-A750del),72%
same,% binding,EGFR(G719S),100%
same,% binding,[2],100%
same,% binding,EGFR(L858R.T790M),100%
same,remaining binding at 1 µM,EPHA7,100%
same,remaining binding at 1 µM,ERBB2,100%
same,remaining binding at 1 µM,FGFR3,84%
same,remaining binding at 1 µM,FLT3(R834Q),100%
same,remaining binding at 1 µM,GAK,81%
same,remaining binding at 1 µM,LRRK2,94%
same,remaining binding at 1 µM,MEK6,100%
same,remaining binding at 1 µM,MLK1,100%
same,remaining binding at 1 µM,NEK6,100%
same,remaining binding at 1 µM,PHKG2,75%
same,remaining binding at 1 µM,PIK3CA(Q546K),100%
same,remaining binding at 1 µM,PIK3CG,96%
same,remaining binding at 1 µM,PIP5K1A,75%
same,remaining binding at 1 µM,RIOK3,52%
same,remaining binding at 1 µM,RIPK1,100%
same,remaining binding at 1 µM,STK39,100%
same,remaining binding at 1 µM,TSSK1B,100%
same,% binding,[3],100%
